{
  "source": "paper PMC10889512",
  "about": "“Pyrimidine Schiff Bases: Synthesis, Structural Characterization and Recent Studies on Biological Activities” (International Journal of Molecular Sciences, 2024)",
  "key": {"A172": {"tested_on": "A172", "assay": "Neutral red uptake assay on A172", "assay_type": "cell-based, human", "settings": "A172, 72 h treatment", "method": "(§1) Based on the results obtained for the RPTEC cell line, the following concentrations of 4b–d were chosen to be applied to neoplastic cell lines: 0.1, 1, 10, 25, 50, and 100 µM. A172, AGS, CaCo-2, HeLa, and HepG2 cancer cell lines were used to perform a neutral red uptake assay. The obtained results were compared with a negative control (cell lines incubated without tested compounds), and half-maximal inhibitory concentration (IC50) values were calculated. Cell lines were plated in 96-well plates at a density of 1 × 10^4 cells/well. After 24 h incubation, which allowed the cells to attach and start to proliferate, the culture media were replaced with 4a–d dissolved in the appropriate medium at concentrations of 1, 10, 50, 100, 150 and 200 µM. […] Negative (1% DMSO in medium) and positive (1 µM staurosporine) controls were also included. Plates were incubated at 37 °C for 24, 48, and 72 h before the neutral red uptake assay. The neutral red uptake assay was performed as described by Repetto et al.. Briefly, the medium from all wells was discarded, the attached cells were washed with 100 µL PBS, and then 100 µL of neutral red working solution in medium (40 µg/mL) was added to each well. The neutral red solution was incubated overnight in the same conditions as the cells and centrifuged before being added to the cells. The plates were incubated for at least 2 h at 37 °C, 5% CO2, in a humidified atmosphere. Next, the neutral red medium was removed, and the cells were washed with 100 µL PBS. A 100 µL quantity of destain solution consisting of 50% ethanol, 1% glacial acetic acid, and deionized water was added to each well. Plates were incubated for 30 min with constant shaking on a horizontal shaker at 37 °C. Absorption was measured at 540 nm excitation. The cells’ viability was calculated by comparing results from experimental sets with negative controls according to the formula: % viability=ODtest substance−ODblind/ODnegative control−ODblind×100"}, "CaCo-2": {"tested_on": "CaCo-2", "assay": "Neutral red uptake assay on CaCo-2", "assay_type": "cell-based", "settings": "Homo sapiens; CaCo-2, 72 h treatment", "method": "as §1"}, "A172 cells": {"tested_on": "A172 cells", "assay": "Flow cytometry FDA/PI staining, cell viability, A172", "assay_type": "cell-based, human", "method": "(§2) A detailed analysis of potential cytotoxic mechanisms has been performed only for the selected compound (4b) where the IC50 values under 100 µM were detected in the screening NR assay. Flow cytometry was performed on the A172 and AGS cell lines. Cells were incubated with compound 4b at IC50 for 24, 48, and 72 h before analysis. Fluorescein diacetate (FDA) and propidium iodide (PI) were used as indicators for viable and nonviable (necrotic) cells. Most of the events were captured in the first and the fourth quadrant, which represent viable and necrotic cells, respectively. […] Similar results were obtained for the AGS cell line (Figure 8B), where the viability was 60.95%/55.10%/44.99% after the same incubation periods, respectively. Some events occurred in the second quadrant, but it was difficult to unequivocally categorize them into viable or nonviable (apoptotic/necrotic) cell populations, and thus more sensitive dyes, able to distinguish between the types of cell death, were needed.\n(§3) Two approaches for flow cytometry were used—FDA/PI staining to determine cell viability and annexin V/PI staining for cell death pathway determination.\n(§4) For cell viability determination, cells were plated in 6-well plates at a density of 1 × 10^5 cells/well and incubated for 24 h at 37 °C, 5% CO2 and in a humidified atmosphere. Next, cells were treated with 4b at a concentration calculated as IC50 in neutral red uptake assay. After 24, 48, and 72 h incubation, the cells (either adhered or floating) were collected, centrifuged at 1600 rpm, and washed with PBS. FDA and PI stock solution at a 1 mM concentration were prepared in DMSO and H2O, respectively. After centrifugation and supernatant discarding, cells were stained with FDA at a final concentration of 1 µM prepared in PBS and incubated in the dark. After 15 min, they were centrifuged at 1600 rpm, resuspended in ice-cold PBS, and placed on ice. Samples were stained with 1 µM PI for 2 min before the cytometry evaluation. […]"}, "AGS cells": {"tested_on": "AGS cells", "assay": "Flow cytometry FDA/PI staining, cell viability, AGS", "assay_type": "cell-based, human", "method": "as §2, §3, §4"}, "E. coli 25922": {"tested_on": "E. coli 25922", "assay": "Antimicrobial activity assay, microdilution", "assay_type": "cell-based, Escherichia coli", "settings": "concentration range from 0.5 µg/mL to 256 µg/mL", "method": "(§5) In vitro antimicrobial and antifungal activity was screened using microdilution and modified Richard’s medium. The assay was performed for compounds 4a, 4b, 4c, and 4d with seven reference microbial strains from ATTC (E. coli 25922, S. aureus 43300, K. pneumoniae 700603, A. baumannii 19606, P. aeruginosa 27853, E. faecalis 29212, and C. albicans 10231).\n(§6) Seven reference strains from the ATCC collection (Escherichia coli 25922, Staphylococcus aureus 43300, Klebsiella pneumoniae 13883, Acinetobacter baumannii 19606, Pseudomonas aeruginosa 27853, Enterococcus faecalis 29212, and Candida albicans 10231) were used. The assay was performed according to a modified version of Richard et al.’s protocol and ISO standards 20776-1:2019 and 16256:2021 [78, 79]. Microdilution with spectrophotometric measurement was used to calculate MIC50 (minimal inhibitory concentration which decreased the microorganisms’ viability to 50%) values. Briefly, compounds were prepared 100× concentrated in DMSO, and during the whole experiment, they were diluted to 1× with TSB. Serial dilutions of tested compounds were made directly on plates at a concentration range of 0.5 to 256 µg/mL. Microorganisms were incubated for 24 h at 37 °C (bacteria) or 25 °C (yeast) on Petri dishes with TSA. The bacteria/yeast suspensions were prepared at a density 5 × 10^5 CFU/mL (for bacteria) or 0.5–2.5 × 10^5 CFU/mL (for yeast) with TSB. Also, appropriate controls were contained in the experiment: the positive control consisted of a specific strain in TSB, and the negative control was TSB alone. To ensure that used strains were not modified and were still responding to antibacterial/antifungal compounds established by EUCAST, additional tests were conducted with levofloxacin, gentamicin, and amphotericin B. Microplates were incubated on a shaker for 24 h at 37 ± 1 °C or 25 ± 1 °C for the bacteria and yeast strains, respectively. After the incubation, spectrophotometric measurement was performed at 580 nm. MIC50 was calculated by comparing the results obtained for experimental sets with positive controls. Next, 50 µL aliquots of 1% (m/v) TTC solution were added to each well. The plates were incubated on the shaker for 24 h at 37/25 °C. In living microbial cells, colourless TTC is converted into red formazan crystals, which allows for visual observation and MBC/MFC (minimal bactericidal/fungicidal concentration) value assessment."}, "E. faecalis 29212": {"tested_on": "E. faecalis 29212", "assay": "Antimicrobial activity assay, microdilution", "assay_type": "cell-based, Enterococcus faecalis", "settings": "concentration range from 0.5 µg/mL to 256 µg/mL", "method": "as §5, §6"}},
  "data": [
    {"smiles": "Cc1nc(-c2ccccc2)nc(Nc2ccc(F)cc2)c1C=Nc1cccc(Cl)c1", "note": "[compound 4b, 5-{[(3-chlorophenyl)imino]methyl}-N-(4-fluorophenyl)-6-methyl-2-phenylpyrimidin-4-amine]", "values": [
      {"measurement": "IC50", "setting": "A172", "result": 63.4, "unit": "µM"},
      {"measurement": "IC50", "setting": "A172; Homo sapiens, A 172, 72 h", "result": 63.4, "unit": "µM"},
      {"measurement": "IC50", "setting": "CaCo-2", "result": "> 100", "unit": "µM"},
      {"measurement": "Q1 events (viable cells; viability), FDA/PI", "setting": "A172 cells; A172, at IC50, 24 h", "result": 59.32, "unit": "%"},
      {"measurement": "Q1 events (viable cells; viability), FDA/PI", "setting": "A172 cells; A172, at IC50, 48 h", "result": 50.98, "unit": "%"},
      {"measurement": "Q1 events (viable cells; viability), FDA/PI", "setting": "A172 cells; A172, at IC50, 72 h", "result": 43.88, "unit": "%"},
      {"measurement": "Q1 events (viable cells; viability), FDA/PI", "setting": "AGS cells; at IC50, 24 h", "result": 60.95, "unit": "%"},
      {"measurement": "Q1 events (viable cells; viability), FDA/PI", "setting": "AGS cells; at IC50, 48 h", "result": 55.10, "unit": "%"},
      {"measurement": "Q1 events (viable cells; viability), FDA/PI", "setting": "AGS cells; at IC50, 72 h", "result": 44.99, "unit": "%"},
      {"measurement": "MIC and MBC/MFC activity", "setting": "E. coli 25922", "result": "Neither MIC nor MBC/MFC activity was observed"},
      {"measurement": "MIC and MBC/MFC activity", "setting": "E. faecalis 29212", "result": "Neither MIC nor MBC/MFC activity was observed"}
    ]}
  ]
}
